Structures can show the parent of a compound that is named as a salt.
Experiments:
[1] = test system: guinea pig papillary muscle; assay: Contractive force of extirpated guinea pig papillary muscle preparation (Test Example 1); details: Cavia porcellus; 10^-3 M; relative to 10^-7 M Isoproterenol (positive control) as 100%; read-out: Increase in contractive force
Protocol: Test animal: guinea-pigs Method of Experiment: extirpated guinea pig papillary muscle preparation. Male albino guinea pigs having body weights of 300 to 500 g were stunned by a blow on the head. The hearts were quickly extirpated and the papillary muscles of the right ventricle were dissected out in cold bathing solution (2° to 4° C.), and were suspended in a 10 ml organ bath for recording isometric contractions. The bathing solution was the Krebs-Henseleit solution (32°±0.5° C.) and was continuously bubbled with a mixed gas composed of 95% O2 and 5% CO2. The papillary muscle preparation were stimulated by square wave pulses of 1 msec duration at the frequency of 1 Hz and at voltages of 20% above the threshold supplied by a square-wave pulse stimulator via a pair of the silver plate electrodes in which the preparations were placed. The isometric contraction was measured by a force-displacement transducer connected to a carrier-amplifier. The test solution was prepared by dissolving the sodium salt into distilled water or dissolving the free acid into Krebs-Henseleit solution. […] The results are shown as relative values (%), taking the result given by a reaction using 10^-7 M Isoproterenol (positive control) as 100%.

[2] = Acute toxicity, intraperitoneal (Test Example 3); details: mouse, in vivo, ip, female mice, in dimethyl sulfoxide, observed for 7 days
Protocol: Test animal: female ICR-CRJ: CD-1 mice, 5 weeks old, body weight 29 to 32 g
LD50 was calculated according to the Richfield-Wilcockson method (Pharmacological Tests, p 200-205, Nanzando, 1967).

[3] = test system: heart; details: literature; result in words; cited from earlier work
[4] = test system: heart-lung preparation; assay: Cardiotonic activity on heart-lung preparation, acute heart failure induced by Pentobarbital (Test Example 2); parameters: species or system dog; details: for Change in Heart rate / Decrease in right atrium pressure / Increase in systemic output: versus nonadministration group
Protocol: Test animal: Crossbred adult dogs (female and male) Method of Experiment: cardiotonic activity on heart-lung preparation. Using female and male crossbred dogs having body weights of 9 to 10 kg anesthetized with Pentobarbital, heart-lung preparations were prepared in the usual way, on which systemic output, right atrium pressure and heart rate were measured. […] Regarding the control (no administration group), the results express the values after administration of Pentobarbital.

## CC(C)CNc1ncnc2c1ncn2[C@@H]1O[C@@H]2COP(=O)(O)O[C@H]2[C@H]1O [N^6 --Isobutyl-C--AMP]
[1]
  activation at 1000 µM: 24%

## O=P1(O)OC[C@H]2O[C@@H](n3cnc4c(NCc5ccco5)ncnc43)[C@H](O)[C@@H]2O1 [N^6 --Furfuryl-C--AMP Na]
[1]
  activation at 1000 µM: 93.2%
[2]
  LD50 at 168 h: 483 mg/kg

## CCCC(=O)Nc1ncnc2c1ncn2[C@@H]1O[C@@H]2COP(=O)(O)O[C@H]2[C@H]1OC(=O)CCC [N^6,2'-O-dibutyryl C-AMP]
[3]
  myocardial contractility: have a mycocardial contractile effect

## CCCCCNc1ncnc2c1ncn2[C@@H]1O[C@@H]2COP(=O)(O)O[C@H]2[C@H]1O [N^6 --Pentyl-C--AMP]
[1]
  activation at 1000 µM: 98%

## CCCCCCCNc1ncnc2c1ncn2[C@@H]1O[C@@H]2COP(=O)(O)O[C@H]2[C@H]1O [N^6 --Heptyl-C--AMP, N^6-heptyladenosine-3',5'-cyclic phosphate]
[1]
  activation at 1000 µM: 94.1%
[4]; 10 mg or 30 mg, result in words
  acute heart failure state induced by Pentobarbital: remarkably improved
[2]
  LD50 at 168 h: 174 mg/kg

## CCCCNc1ncnc2c1ncn2[C@@H]1O[C@@H]2COP(=O)(O)O[C@H]2[C@H]1O [N^6 --Butyl-C--AMP]
[1]
  activation at 1000 µM: 71%
[2]
  LD50 at 168 h: 350 mg/kg

## CCCCCCCCCNc1ncnc2c1ncn2[C@@H]1O[C@@H]2COP(=O)(O)O[C@H]2[C@H]1O [N^6 --Nonyl-C--AMP Na]
[1]
  activation at 1000 µM: 49.5%
[2]
  LD50 at 168 h: 150 mg/kg

## CCCCCCCNc1ncnc2c1ncn2[C@@H]1O[C@@H]2COP(=O)(O)O[C@H]2[C@H]1O [sodium salt of N^6-heptyl-adenosine-3',5'-cyclic phosphate]
[4]; 10 mg
  Heart rate: 112 beats/min.
  Right atrium pressure: 96.9 mm H2 O
  Systemic output: 409 ml/min./100 g heart
  Change in Heart rate: 2 beats/min.
  Decrease in right atrium pressure: 12.1 mm H2 O
  Increase in systemic output: 150 ml/min./100 g heart
[4]; 30 mg
  Heart rate: 120 beats/min.
  Right atrium pressure: 68.3 mm H2 O
  Systemic output: 610 ml/min./100 g heart
  Change in Heart rate: 10 beats/min.
  Decrease in right atrium pressure: 40.7 mm H2 O
  Increase in systemic output: 351 ml/min./100 g heart

## O=P1(O)OC[C@H]2O[C@@H](n3cnc4c(NCc5ccccc5)ncnc43)[C@H](O)[C@@H]2O1 [N^6 --Benzyl-C--AMP Na]
[1]
  activation at 1000 µM: 91.7%
[2]
  LD50 at 168 h: 383 mg/kg

From US4902677A, “Treatment of heart failure of mammals with N^6 -substituted cyclic adenosine monophosphates” (Kikkoman Corporation, priority 1987, dated 1990)
